{"source": "patent US20150182675A1", "about": "“Ascorbic Acid-Eluting Implantable Medical Devices, Systems, and Related Methods” (South Dakota Board of Regents, priority 2012, published 2015)", "format_in_all_cases": "cell-based", "key": {"smooth muscle cells [1]": {"test_system": "smooth muscle cells", "test": "FDA staining and fluorescence microscopy of smooth muscle cells (Example Nine)", "settings": "for smooth muscle cell growth from one time point to the other: FDA staining, days 1 to 7; for confluence of smooth muscle cells: after 7 days", "from_the_text": "Example 9 provides a qualitative characterization of the Example Eight results using flurorescence microscopy. More specifically, the growth of smooth muscle cells in the presence of three different treatments (ascorbic acid, paclitaxel, and sirolimus) was investigated by staining the live cells with fluorescein diacetate (FDA). The FDA-stained live cells were then imaged using flurorescence microscopy on day 1, day 3, day 5, and day 7 of culture. On each day, a determination of growth (viability and proliferation) of smooth muscle cells was made."}, "endothelial cells [2]": {"test_system": "endothelial cells", "test": "Phase contrast microscopy of endothelial cell morphology (Example Six)", "settings": "100 μg added, day 7, phase contrast", "description": "In Example 6, 100 μg of L-ascorbic acid, 100 μg of sirolimus, and 100 μg paclitaxel were added to separate endothelial cell cultures. A control cell culture was also provided in which no agent was added. The effects of L-AA, SIR, and PAT on the growth of endothelial cells was investigated by taking phase contrast images of cells after 7 days using an Axiovert 200 M inverted microscopy (Carl Zeiss) in the bright field imaging mode and examining the cell morphology."}, "smooth muscle cells [3]": {"test_system": "smooth muscle cells", "test": "FDA staining and fluorescence microscopy of smooth muscle cells, different doses of ascorbic acid (Example Twelve)", "settings": "for confluence of smooth muscle cells: after 7 days", "from_the_text": "Example 12 provides a qualitative characterization of the Example Eleven results using fluorescence microscopy. More specifically, the growth of smooth muscle cells in the presence of five different doses of ascorbic acid was investigated by staining the live cells with fluorescein diacetate (FDA). The FDA-stained live cells were then imaged using fluorescence microscopy on day 1, day 3, day 5, and day 7 of culture. On each day, a determination of growth (viability and proliferation) of smooth muscle cells was made."}, "smooth muscle cells [4]": {"test_system": "smooth muscle cells", "test": "Phase contrast microscopy of smooth muscle cell morphology (Example Ten)", "settings": "day 7, phase contrast", "from_the_text": "Example 10 provides a further qualitative characterization of the Example Eight results using phase contrast microscopy. That is, the effects of L-AA, SIR, and PAT on the growth of smooth muscle cells was investigated by taking phase contrast images of cells after 7 days using an Axiovert 200 M inverted microscopy (Carl Zeiss) in the bright field imaging mode and examining the cell morphology."}, "smooth muscle cells [5]": {"test_system": "smooth muscle cells", "test": "Resazurin fluorometric assay of smooth muscle cells, different doses of ascorbic acid (Example Eleven)", "description": "(§1) In Example 11, a quantitative resazurin fluorometric assay was used. A solution of alamarBlue® from a kit purchased from Biotium Inc. (in Hayward, Calif.) was added to smooth muscle cell cultures which were already treated with different doses of ascorbic acid. More specifically, the different doses of ascorbic acid included 1 μg/mL, 100 μg/mL, 300 μg/mL, 500 μg/mL, and 1000 μg/mL. A control lacking any ascorbic acid was also included. After respective time points (1, 3, 5, and 7 days), the fluorescence of the solution was measured using a microplate reader. The collected data is provided as relative fluorescence units (RFU) vs. time for all the six groups (control, 1 μg/mL, 100 μg/mL, 300 μg/mL, 500 μg/mL, and 1000 μg/mL) of samples."}, "endothelial cells [6]": {"test_system": "endothelial cells", "test": "FDA staining and fluorescence microscopy of endothelial cell cultures (Example One)", "settings": "for endothelial cell adhesion: 100 μg added, 15,000 cells per well, day 1; for spreading of endothelial cells: day 5", "description": "In Example 1, […] of L-ascorbic acid, 100 μg of sirolimus, and 100 μg paclitaxel were added to separate endothelial cell cultures (15,000 cells per well). A control cell culture was also provided in which no agent was added. The endothelial cell adhesion in the culture well was investigated by staining the live cells with fluorescein diacetate (FDA). The FDA-stained live cells were then imaged using fluorescence microscopy on day one, day 3, day five, and day seven of culture. After five days, a determination of the spreading of endothelial cells was made. After seven days, a determination of growth (viability and proliferation) of endothelial cells was made."}, "endothelial cells [7]": {"test_system": "endothelial cells", "test": "Resazurin fluorometric assay (Alamar Blue) of endothelial cell cultures (Example Two)", "settings": "RFU, FIG. 5", "description": "In order to provide a quantitative characterization of the Example One results, a resazurin fluorometric assay (Alamar Blue) was used. A solution of Alamar Blue was added to the endothelial cell cultures which were already treated with ascorbic acid, sirolimus, or paclitaxel. A control lacking any therapeutic agent was included. After respective time points (1, 3, 5, and 7 days), the fluorescence of the solution was measured using a microplate reader. The collected data is provided as relative fluorescence units (RFU) vs. time for all the three groups (ascorbic acid, sirolimus, and paclitaxel) of samples."}, "endothelial cells [8]": {"test_system": "endothelial cells", "test": "Resazurin fluorometric assay of endothelial cells, different doses of ascorbic acid (Example Seven)", "description": "as §1, with “7,” for “11,”, “the endothelial” for “smooth muscle”"}, "smooth muscle cells [9]": {"test_system": "smooth muscle cells", "test": "Resazurin fluorometric assay of smooth muscle cell cultures (Example Eight)", "settings": "for number of smooth muscle cells in comparison to the control: day 1; for smooth muscle cell growth vs control: day 3", "description": "In Example 8, a quantitative resazurin fluorometric assay was used. A solution of alamarBlue® from a kit purchased from Biotium Inc. (in Hayward, Calif.) was added to the smooth muscle cell cultures which were already treated with ascorbic acid, sirolimus, or paclitaxel. A control lacking any therapeutic agent was also included. After respective time points (1, 3, 5, and 7 days), the fluorescence of the solution was measured using a microplate reader. The collected data is provided as relative fluorescence units (RFU) vs. time for all the three groups (ascorbic acid, sirolimus, and paclitaxel) of samples."}, "[10]": {"settings": "days 1 to 7, doses 1 to 1000 μg"}}}
{"smiles": "O=C1O[C@H]([C@@H](O)CO)C(O)=C1O", "note": "[ascorbic acid, L-ascorbic acid]", "values": [{"measurement": "smooth muscle cell growth from one time point to the other", "setting": "smooth muscle cells [1]", "result": "significantly inhibited"}, {"measurement": "confluence of smooth muscle cells", "setting": "smooth muscle cells [1]", "result": "50-60%"}, {"measurement": "endothelial cell morphology", "setting": "endothelial cells [2]", "result": "spreading morphology with characteristic polygonal shape"}, {"measurement": "inhibitory effect on smooth muscle cells", "setting": "smooth muscle cells [3]; 1 μg dose", "result": "no inhibitory effect"}, {"measurement": "inhibitory effect on smooth muscle cells", "setting": "smooth muscle cells [3]; 1000 μg dose", "result": "maximum inhibitory effect"}, {"measurement": "confluence of smooth muscle cells", "setting": "smooth muscle cells [3]; 1 μg dose", "result": "> 90", "unit": "%"}, {"measurement": "confluence of smooth muscle cells", "setting": "smooth muscle cells [3]; 100 μg dose", "result": "50-60%"}, {"measurement": "confluence of smooth muscle cells", "setting": "smooth muscle cells [3]; 300 μg dose", "result": "50-60%"}, {"measurement": "confluence of smooth muscle cells", "setting": "smooth muscle cells [3]; 500 μg dose", "result": "30-40%"}, {"measurement": "confluence of smooth muscle cells", "setting": "smooth muscle cells [3]; 1000 μg dose", "result": "30-40%"}, {"measurement": "smooth muscle cell growth", "setting": "smooth muscle cells [3]; doses ranging from 100 to 1000 μg, days 1 to 7", "result": "significantly inhibited"}, {"measurement": "smooth muscle cell morphology and spreading", "setting": "smooth muscle cells [4]", "result": "spindle-shaped, but they were less spreading when compared to the control"}, {"measurement": "number of smooth muscle cells vs control and 1 μg dose", "setting": "smooth muscle cells [5]; day 1, doses 100 to 1000 μg", "result": "significantly fewer cells"}, {"measurement": "number of smooth muscle cells vs 100 and 300 μg doses", "setting": "smooth muscle cells [5]; day 3 (similar days 5 and 7), 500 and 1000 μg doses", "result": "fewer cells in comparison to the 100 and 300 μg doses"}, {"measurement": "order of viability and proliferation of smooth muscle cells for the different doses (decreasing)", "setting": "smooth muscle cells [5]; [10]", "result": "control=1 μg>>100 μg=300 μg>500 μg=1000 μg"}, {"measurement": "endothelial cell adhesion", "setting": "endothelial cells [6]", "result": "excellent"}, {"measurement": "spreading of endothelial cells", "setting": "endothelial cells [6]; 100 μg added", "result": "excellent"}, {"measurement": "growth (viability and proliferation) of endothelial cells", "setting": "endothelial cells [6]; 100 μg added, day 7", "result": "excellent"}, {"measurement": "growth of endothelial cells in comparison to the control", "setting": "endothelial cells [6]; 100 μg added, day 7", "result": "more growth in comparison to the control"}, {"measurement": "growth of endothelial cells relative to cells treated with paclitaxel", "setting": "endothelial cells [7]", "result": 10, "unit": "fold"}, {"measurement": "growth of endothelial cells relative to cells treated with sirolimus", "setting": "endothelial cells [7]", "result": 19, "unit": "fold"}, {"measurement": "growth of endothelial cells relative to control (no drug)", "setting": "endothelial cells [7]", "result": 1.6, "unit": "fold"}, {"measurement": "number of endothelial cells vs control", "setting": "endothelial cells [8]; day 1, all doses (1 to 1000 μg/mL)", "result": "no significant differences"}, {"measurement": "number of endothelial cells vs control and other doses", "setting": "endothelial cells [8]; day 3, 100 μg dose", "result": "significantly greater"}, {"measurement": "number of endothelial cells vs control and other doses", "setting": "endothelial cells [8]; day 5, 100 μg dose", "result": "significantly greater number of cells"}, {"measurement": "number of endothelial cells vs control and other doses", "setting": "endothelial cells [8]; day 5, 300 μg dose", "result": "significantly greater number of cells"}, {"measurement": "number of endothelial cells vs control and other doses", "setting": "endothelial cells [8]; day 5, 500 μg dose", "result": "significantly greater number of cells"}, {"measurement": "number of endothelial cells among the groups", "setting": "endothelial cells [8]; day 7, 300 μg/mL dose", "result": "maximum number of cells"}, {"measurement": "number of endothelial cells among the groups", "setting": "endothelial cells [8]; day 7, 100 dose", "result": "maximum number of cells"}, {"measurement": "order of viability and proliferation of endothelial cells for the different doses (increasing)", "setting": "endothelial cells [8]; [10]", "result": "1000 μg<1 μg=control=500 μg<<300 μg=100 μg"}, {"measurement": "number of smooth muscle cells in comparison to the control", "setting": "smooth muscle cells [9]", "result": "significantly lesser number of cells"}, {"measurement": "smooth muscle cell growth vs control", "setting": "smooth muscle cells [9]", "result": "significantly inhibited the cell growth"}, {"measurement": "effect on growth of SMCs (overall)", "setting": "smooth muscle cells [9]; days 1 to 7", "result": "significantly inhibited growth of SMCs"}, {"measurement": "order of SMC viability and proliferation (decreasing)", "setting": "smooth muscle cells [9]; days 1 to 7", "result": "Control>>ascorbic acid>sirolimus=paclitaxel"}]}
{"smiles": "CC(=O)O[C@H]1C(=O)[C@@]2(C)[C@H]([C@H](OC(=O)c3ccccc3)[C@]3(O)C[C@H](OC(=O)[C@H](O)[C@@H](NC(=O)c4ccccc4)c4ccccc4)C(C)=C1C3(C)C)[C@]1(OC(C)=O)CO[C@@H]1C[C@@H]2O", "note": "[paclitaxel]", "values": [{"measurement": "smooth muscle cell growth from one time point to the other", "setting": "smooth muscle cells [1]", "result": "significantly inhibited"}, {"measurement": "confluence of smooth muscle cells", "setting": "smooth muscle cells [1]", "result": "about 20%"}, {"measurement": "endothelial cell morphology", "setting": "endothelial cells [2]", "result": "uncharacteristic oval or round shape with no spreading morphology"}, {"measurement": "smooth muscle cell morphology and spreading", "setting": "smooth muscle cells [4]", "result": "not spreading and only very few cells were spindle-shaped"}, {"measurement": "endothelial cell adhesion", "setting": "endothelial cells [6]", "result": "poor"}, {"measurement": "spreading of endothelial cells", "setting": "endothelial cells [6]; 100 μg added", "result": "poor"}, {"measurement": "growth (viability and proliferation) of endothelial cells", "setting": "endothelial cells [6]; 100 μg added, day 7", "result": "poor"}, {"measurement": "number of smooth muscle cells in comparison to the control", "setting": "smooth muscle cells [9]", "result": "significantly lesser number of cells"}, {"measurement": "smooth muscle cell growth vs control", "setting": "smooth muscle cells [9]", "result": "significantly inhibited the cell growth"}, {"measurement": "number of smooth muscle cells vs ascorbic acid treatment", "setting": "smooth muscle cells [9]; day 5 (similar on day 7)", "result": "lesser numbers of cells than that of the ascorbic acid treatment"}, {"measurement": "order of SMC viability and proliferation (decreasing)", "setting": "smooth muscle cells [9]; days 1 to 7", "result": "Control>>ascorbic acid>sirolimus=paclitaxel"}]}
{"smiles": "CO[C@H]1C[C@@H]2CC[C@@H](C)[C@@](O)(O2)C(=O)C(=O)N2CCCC[C@H]2C(=O)O[C@H]([C@H](C)C[C@@H]2CC[C@@H](O)[C@H](OC)C2)CC(=O)[C@H](C)/C=C(\\C)[C@@H](O)[C@@H](OC)C(=O)[C@H](C)C[C@H](C)/C=C/C=C/C=C/1C", "note": "[sirolimus]", "values": [{"measurement": "confluence of smooth muscle cells", "setting": "smooth muscle cells [1]", "result": "about 20%"}]}
